The results in this text go back to ChEMBL document CHEMBL2390842, “Development of indole/indazole-aminopyrimidines as inhibitors of c-Jun N-terminal kinase (JNK): optimization for JNK potency and physicochemical properties” (Bioorg Med Chem Lett, 2013).

In brackets after ≈: the same amount, converted by molar mass.

Series [1] is described as follows: Half life in dog at 2 mg/kg, po. The class given is ADME, organism-based, Canis lupus familiaris. Also on record: dose 2 mg/kg, route oral. Particulars: in vivo.
Series [2] can be described thus: Oral bioavailability in dog at 2 mg/kg. The class given is ADME, organism-based, Canis lupus familiaris. Particulars: in vivo.
A short description of series [3]: Oral bioavailability in rat at 2 mg/kg. Format: ADME, organism-based. To be noted: in vivo.
Series [4] is described as follows: Clearance in dog at 0.5 mg/kg, iv. The class given is ADME, organism-based, Canis lupus familiaris. Set-up: dose 0.5 mg/kg, route intravenous. To be noted: in vivo.
A short description of series [5]: Half life in dog at 0.5 mg/kg, iv. Format: ADME, organism-based, Canis lupus familiaris. Set-up: dose 0.5 mg/kg, route intravenous. Particulars: in vivo.
Series [6] can be described thus: Half life in rat at 0.5 mg/kg, iv. The class given is ADME, organism-based. To be noted: in vivo. Set-up: dose 0.5 mg/kg, route intravenous.
Series [7] in a line: Half life in rat at 2 mg/kg, po. To be noted: in vivo. Set-up: dose 2 mg/kg, route oral. Format: ADME, organism-based.
A short description of series [8]: Clearance in rat at 0.5 mg/kg, iv. The class given is ADME, organism-based. To be noted: in vivo. Also on record: dose 0.5 mg/kg, route intravenous.
Series [9] has as its target Mitogen-activated protein kinase 9 (Homo sapiens, UniProt P45984). The series is described as follows: Inhibition of human JNK2alpha2 using GST-tagged ATF2 as substrate preincubated for 10 mins prior to substrate addition measured after 30 mins by microplate scintillation counting analysis.
The nature of series [10]: Solubility of the compound in phosphate buffer at pH 6.4. The class given is physicochemical.
A short description of series [11]: Permeability from apical to basolateral side in human Caco2 cells. Particulars: Caco-2. The class given is ADME, cell-based.
Series [12] deals with c-Jun N-terminal kinase, JNK (Homo sapiens, UniProt P45983+P53779+P45984). The series is described as follows: Inhibition of JNK-mediated c-Jun activation in TNFalpha-induced human SW1353 cells preincubated for 30 mins prior to TNFalpha treatment measured after 20 mins. Format: cell-based.
For series [13], the target named is Mitogen-activated protein kinase 8 (Homo sapiens, UniProt P45983). The series is described as follows: Inhibition of human JNK1alpha1 using GST-tagged ATF2 as substrate preincubated for 10 mins prior to substrate addition measured after 30 mins by microplate scintillation counting analysis.
In another series the test system is Caco-2. The experiment in a line: Efflux ratio of permeability from […] side in human Caco2 cells. The class given is ADME, cell-based.

Mitogen-activated protein kinase 8, sequence (P45983 whole entry): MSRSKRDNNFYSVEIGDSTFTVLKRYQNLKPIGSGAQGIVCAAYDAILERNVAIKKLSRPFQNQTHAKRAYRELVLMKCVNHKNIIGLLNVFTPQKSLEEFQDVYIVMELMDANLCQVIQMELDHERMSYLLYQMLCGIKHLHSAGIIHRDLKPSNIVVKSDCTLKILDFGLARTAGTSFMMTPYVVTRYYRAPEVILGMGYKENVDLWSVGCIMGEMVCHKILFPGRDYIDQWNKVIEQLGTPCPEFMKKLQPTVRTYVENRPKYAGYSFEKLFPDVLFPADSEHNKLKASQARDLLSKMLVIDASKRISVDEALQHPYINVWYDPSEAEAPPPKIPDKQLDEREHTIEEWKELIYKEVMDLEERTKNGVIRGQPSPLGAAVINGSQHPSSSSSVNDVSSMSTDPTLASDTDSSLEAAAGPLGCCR
Mitogen-activated protein kinase 9, sequence (P45984 whole entry): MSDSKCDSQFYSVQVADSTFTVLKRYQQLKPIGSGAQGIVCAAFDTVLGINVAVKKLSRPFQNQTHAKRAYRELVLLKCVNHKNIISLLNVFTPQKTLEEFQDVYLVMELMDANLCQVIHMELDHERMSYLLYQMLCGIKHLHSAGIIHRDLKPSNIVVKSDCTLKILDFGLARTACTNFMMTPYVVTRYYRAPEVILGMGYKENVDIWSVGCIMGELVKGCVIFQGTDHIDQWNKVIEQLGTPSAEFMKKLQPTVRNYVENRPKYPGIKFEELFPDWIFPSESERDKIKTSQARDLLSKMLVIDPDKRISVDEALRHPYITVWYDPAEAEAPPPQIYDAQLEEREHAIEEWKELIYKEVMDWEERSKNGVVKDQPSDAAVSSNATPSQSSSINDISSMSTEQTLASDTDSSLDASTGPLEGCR

With `CS(=O)(=O)C1CCN(c2cccc3c2ccn3-c2ccnc(N[C@H]3CC[C@H](O)CC3)n2)CC1`, the half-life in [1] was 3.4 h; in series [5], 4.5 h; in series [6] it was 0.7 h; in series [7], 2 h. In addition, the bioavailability was found to be 15% in series [2] and 100% in [3]. For the same compound, the clearance in series [4] was 10.6 mL/min/kg; in series [8], 47 mL/min/kg. Moreover, in series [9], half-maximal inhibition (IC50) required 20 nM. Besides, the concentration in solution in series [10] (solubility) was 5.2 µg/mL (≈ 11.1 µM). In addition, in [11], the Papp A→B is 10.5 ×10⁻⁶ cm/s.
In turn, `CS(=O)(=O)N[C@H]1CC[C@H](Nc2nccc(-n3ccc4c(N5CCC(S(C)(=O)=O)CC5)cccc43)n2)CC1` yielded a 50% inhibitory concentration (IC50) in series [12] of 710 nM.
Take `CS(=O)(=O)N[C@H]1CC[C@H](Nc2nccc(-n3ccc4c(N5CCN(C(=O)CC#N)CC5)cccc43)n2)CC1`: the figures for the half-maximal inhibitory concentration (IC50) in series [12] and in [13] were 200 nM and 5 nM, respectively.
`CC(=O)N[C@H]1CC[C@H](Nc2nccc(-n3ccc4c(N5CCC(S(C)(=O)=O)CC5)cccc43)n2)CC1`: the concentration for half-maximal inhibition (IC50) was 700 nM in [12] and 7 nM in series [13].
As for `CS(=O)(=O)C1CCN(c2cccc3c2ccn3-c2ccnc(N[C@H]3CC[C@H](C(=O)N4CCC(O)CC4)CC3)n2)CC1`, the apparent permeability from apical to basolateral (Papp A→B) in [11] was determined as 0.4 ×10⁻⁶ cm/s.
Same read-out and setting: for `CS(=O)(=O)C1CCN(c2cccc3c2ccn3-c2ccnc(N[C@H]3CC[C@H](C(=O)N4CCn5cnnc5C4)CC3)n2)CC1` the value was 0.1 ×10⁻⁶ cm/s.
For the compound `CS(=O)(=O)C1CCN(c2cccc3c2cnn3-c2ccnc(N[C@H]3CC[C@H](O)CC3)n2)CC1`, the Ratio with Caco-2 came to 5. The concentration for half-maximal inhibition (IC50) in series [12] came out at 290 nM; in series [13], 6 nM. Moreover, in series [10], the concentration in solution (solubility) was 3.5 µg/mL (≈ 7.44 µM). Besides, the Papp A→B in [11] came to 3.8 ×10⁻⁶ cm/s.
